Marks after values point to notes of the source that are not given here.
Columns and labels:
human α-thrombin = human α-thrombin (Homo sapiens, UniProt P00734); type: biochemical; details: for HS (Hill slope) / logIC50: pH 7.4, 25 °C, Spectrozyme TH; for fold decrease in potency from 9a: ratio of IC50s
Water solubility = type: physicochemical; details: devoid of any sulfate group

In the case of `CCOC(=O)c1c(COc2cc3c(C(=O)O)c(C)oc3cc2OC)oc2cc(OC)c(OCc3oc4cc(OC)c(OS(=O)(=O)[O-])cc4c3C(=O)OCC)cc12.[Na+]` [compound 14], the “fold reduction in potency from 13” value (human α-thrombin; allyl ester to carboxylic acid) is reported as 2 fold, the “HS (Hill slope)” value (human α-thrombin) is reported as 1.0 ^c and the logIC50 (human α-thrombin) is reported as −4.18 ± 0.17.

For `CCOC(=O)c1c(C)oc2cc(OC)c(OCc3oc4cc(OC)c(OCc5oc6cc(OC(C)C)c(OS(=O)(=O)[O-])cc6c5C(=O)OCC)cc4c3C(=O)OCC)cc12.[Na+]` [9g], the logIC50 (human α-thrombin) was ~ −4.0 ^d and the “fold decrease in potency from 9a” value (human α-thrombin) was 148 fold.

For `CCOC(=O)c1c(C)oc2cc(OC)c(OCc3oc4cc(OC)c(OCc5oc6cc(OC)c(OS(=O)(=O)[O-])cc6c5C(=O)OC(C)(C)C)cc4c3C(=O)OCC)cc12.[Na+]` [9c], the “HS (Hill slope)” value (human α-thrombin) was 2.1 ± 0.5 and the logIC50 (human α-thrombin) was −3.78 ± 0.07.

For `C=CCOC(=O)c1c(C)oc2cc(OC)c(OCc3oc4cc(OC)c(OCc5oc6cc(OC)c(OS(=O)(=O)[O-])cc6c5C(=O)OCC)cc4c3C(=O)OCC)cc12.[Na+]` [compound 13], the “HS (Hill slope)” value (human α-thrombin) was 3.5 ± 1.2, the logIC50 (human α-thrombin) was −4.51 ± 0.06 and the “fold decrease in potency from 9a” value (human α-thrombin) was 46 fold.

For `CCOC(=O)c1c(C)oc2cc(OC)c(OCc3oc4cc(OC)c(OCc5oc6cc(OS(=O)(=O)[O-])c(OC)cc6c5C(=O)OCC)cc4c3C(=O)OCC)cc12.[Na+]` [compound 23], the “HS (Hill slope)” value (human α-thrombin) was 1.2 ± 0.3 and the logIC50 (human α-thrombin) was −3.81 ± 0.13.

In the case of `CCOC(=O)c1c(COc2cc3c(C(=O)OCC)c(COc4cc5c(C(=O)O)c(C)oc5cc4OC)oc3cc2OC)oc2cc(OC)c(O)cc12` [compound 12], the water solubility (Water solubility) is reported as “fairly good water solubility”.

From PMC3717983 (Journal of medicinal chemistry, 2013)
